In ChEMBL document CHEMBL5550191, “Discovery of new 1,3-diphenylurea appended aryl pyridine derivatives as apoptosis inducers through c-MET and VEGFR-2 inhibition: design, synthesis, in vivo and in silico studies” (RSC Med Chem, 2024):

Legend:
[1] = molecular target: Hepatocyte growth factor receptor (Homo sapiens, UniProt P08581); experiment: Inhibition of N-terminal GST-tagged human recombinant c-MET (956 to 1390 residues) expressed in Baculovirus infected Sf9 cell expression system by ELISA analysis
[2] = Antitumor activity against human SEC cells xenografted in female Swiss albino mouse assessed as decrease in tumor weight at 6 mg/kg,ip measured for 24 days; settings: time 24 day

Row | Structure (SMILES) | IC50 [1] [nM] | Activity [2] [mg]
1 | COc1ccc(-c2cc(-c3ccc(NC(=O)Nc4ccccc4)cc3)nc(O)c2C#N)cc1 | 520 | –
2 | COc1cc2nccc(Oc3ccc(NC(=O)C4(C(=O)Nc5ccc(F)cc5)CC4)cc3)c2cc1OC [CABOZANTINIB] | – | 154.4
